From ChEMBL document CHEMBL1140941 (J Med Chem, 2009) come the findings set out here.

Test [1] concerns the target Retinoic acid receptor gamma (Homo sapiens) (UniProt P13631). As to the kind of experiment: Agonist activity at gal-RARgamma expressed in african green monkey CV1 cells co-expressing MH100 by luciferase reporter gene assay. Format: functional, cell-based. The following applies: CV-1. (In general: In a reporter assay the amount or activity of a reporter protein is the signal.)

Test [2] addresses T1, Estrogen receptor (Homo sapiens) (UniProt P03372).
T1 sequence (whole entry): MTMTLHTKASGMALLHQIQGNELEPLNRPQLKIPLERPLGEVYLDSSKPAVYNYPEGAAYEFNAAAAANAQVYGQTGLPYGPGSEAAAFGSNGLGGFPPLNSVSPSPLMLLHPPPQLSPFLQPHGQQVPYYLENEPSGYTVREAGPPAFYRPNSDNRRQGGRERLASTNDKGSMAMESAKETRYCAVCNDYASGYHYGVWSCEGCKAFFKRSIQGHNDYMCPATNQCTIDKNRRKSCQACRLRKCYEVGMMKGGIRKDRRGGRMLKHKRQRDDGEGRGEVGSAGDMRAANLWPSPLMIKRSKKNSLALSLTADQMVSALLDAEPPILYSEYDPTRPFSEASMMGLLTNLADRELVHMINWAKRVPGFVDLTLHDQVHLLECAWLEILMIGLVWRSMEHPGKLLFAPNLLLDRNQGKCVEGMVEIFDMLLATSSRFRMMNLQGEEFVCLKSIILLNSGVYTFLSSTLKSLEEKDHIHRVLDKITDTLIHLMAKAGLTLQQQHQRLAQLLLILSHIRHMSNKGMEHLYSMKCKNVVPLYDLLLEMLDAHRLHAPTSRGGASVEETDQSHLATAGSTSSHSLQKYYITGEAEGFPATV
As to the kind of experiment: Agonist activity at gal-ERalpha expressed in african green monkey CV1 cells co-expressing MH100 up to 10 uM by luciferase reporter gene assay relative to control. It is filed as functional, cell-based. The following applies: CV-1.

Test [3] concerns the target Oxysterols receptor LXR-alpha (Homo sapiens) (UniProt Q13133). As to the kind of experiment: Agonist activity at LXRalpha expressed in african green monkey CV1 cells co-expressing LXRE by luciferase reporter gene assay. It is filed as functional, cell-based. The following applies: CV-1.
Test [4] addresses T2, Mineralocorticoid receptor (Homo sapiens) (UniProt P08235).
T2 sequence (whole entry): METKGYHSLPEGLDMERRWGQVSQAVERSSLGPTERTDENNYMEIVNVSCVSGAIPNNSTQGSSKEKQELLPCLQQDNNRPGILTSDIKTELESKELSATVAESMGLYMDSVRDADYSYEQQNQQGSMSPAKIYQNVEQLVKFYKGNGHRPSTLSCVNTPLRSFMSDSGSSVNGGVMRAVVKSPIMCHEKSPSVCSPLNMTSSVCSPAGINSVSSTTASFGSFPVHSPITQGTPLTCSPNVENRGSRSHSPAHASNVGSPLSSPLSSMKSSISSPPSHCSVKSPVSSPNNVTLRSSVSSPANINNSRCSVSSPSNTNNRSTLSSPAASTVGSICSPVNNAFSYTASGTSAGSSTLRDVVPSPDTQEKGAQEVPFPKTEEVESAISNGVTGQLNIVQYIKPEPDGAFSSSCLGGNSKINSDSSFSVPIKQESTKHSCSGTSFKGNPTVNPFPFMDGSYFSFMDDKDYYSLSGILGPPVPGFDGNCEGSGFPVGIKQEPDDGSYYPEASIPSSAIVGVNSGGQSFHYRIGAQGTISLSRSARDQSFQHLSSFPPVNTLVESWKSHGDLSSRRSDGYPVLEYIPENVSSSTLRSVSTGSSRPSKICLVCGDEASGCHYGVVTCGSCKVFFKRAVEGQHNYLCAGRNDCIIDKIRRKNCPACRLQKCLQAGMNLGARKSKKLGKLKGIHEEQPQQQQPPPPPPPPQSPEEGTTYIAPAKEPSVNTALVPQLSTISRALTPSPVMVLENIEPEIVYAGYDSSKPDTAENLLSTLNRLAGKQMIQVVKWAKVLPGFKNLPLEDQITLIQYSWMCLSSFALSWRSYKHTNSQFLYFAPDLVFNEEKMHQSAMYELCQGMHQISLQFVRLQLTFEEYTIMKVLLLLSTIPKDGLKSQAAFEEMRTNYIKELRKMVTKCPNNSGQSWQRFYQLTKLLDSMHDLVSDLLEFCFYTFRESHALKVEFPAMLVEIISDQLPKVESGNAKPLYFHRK
As to the kind of experiment: Antagonist activity at gal-MR expressed in african green monkey CV1 cells co-expressing MH100 at 10 uM by luciferase reporter gene assay. It is filed as functional, cell-based. The following applies: CV-1.

A further test has as its system Mus musculus. Nature of the test: Reduction of plasma total cholesterol level in western diet-induced hyperlipidemia LDLR knockout mouse model at 1 mg/kg, po administered for 6 weeks. Format: functional. The arrangement: scale not given: the % may be the effect or the level left.
The target of test [5] is T3, Androgen receptor (Homo sapiens) (UniProt P10275).
T3 sequence (whole entry): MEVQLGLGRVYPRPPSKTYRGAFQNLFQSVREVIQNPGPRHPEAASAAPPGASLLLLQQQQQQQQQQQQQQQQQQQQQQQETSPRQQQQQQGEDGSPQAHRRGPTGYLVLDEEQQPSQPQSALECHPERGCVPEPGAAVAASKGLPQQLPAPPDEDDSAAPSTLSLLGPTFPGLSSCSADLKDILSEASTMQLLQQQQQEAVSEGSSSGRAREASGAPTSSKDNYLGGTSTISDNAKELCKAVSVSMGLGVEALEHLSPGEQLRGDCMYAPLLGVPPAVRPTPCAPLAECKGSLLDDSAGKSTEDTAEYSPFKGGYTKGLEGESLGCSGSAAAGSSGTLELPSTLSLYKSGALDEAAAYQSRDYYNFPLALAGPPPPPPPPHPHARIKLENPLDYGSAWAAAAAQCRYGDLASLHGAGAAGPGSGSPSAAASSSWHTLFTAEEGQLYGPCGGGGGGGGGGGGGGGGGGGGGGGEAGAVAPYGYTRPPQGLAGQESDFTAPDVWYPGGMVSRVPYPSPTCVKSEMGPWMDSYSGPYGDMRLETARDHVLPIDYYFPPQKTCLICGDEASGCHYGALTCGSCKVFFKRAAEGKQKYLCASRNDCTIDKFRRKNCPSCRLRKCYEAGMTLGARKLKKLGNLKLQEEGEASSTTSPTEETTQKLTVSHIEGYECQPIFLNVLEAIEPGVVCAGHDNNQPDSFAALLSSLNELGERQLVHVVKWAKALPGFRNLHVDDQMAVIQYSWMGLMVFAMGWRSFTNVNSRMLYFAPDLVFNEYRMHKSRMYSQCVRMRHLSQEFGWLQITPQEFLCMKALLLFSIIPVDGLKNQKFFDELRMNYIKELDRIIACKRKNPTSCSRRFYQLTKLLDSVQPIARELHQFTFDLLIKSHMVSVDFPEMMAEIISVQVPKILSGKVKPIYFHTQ
Nature of the test: Agonist activity at human gal-AR expressed in african green monkey CV1 cells co-expressing MH100 with pGRIP1 co-factor by luciferase reporter gene assay. The following applies: CV-1. It is filed as functional, cell-based.

Active and inactive are the calls of the source. The rule behind the calls is not given here.

Chain of Oxysterols receptor LXR-alpha (Homo sapiens) (Q13133 whole entry): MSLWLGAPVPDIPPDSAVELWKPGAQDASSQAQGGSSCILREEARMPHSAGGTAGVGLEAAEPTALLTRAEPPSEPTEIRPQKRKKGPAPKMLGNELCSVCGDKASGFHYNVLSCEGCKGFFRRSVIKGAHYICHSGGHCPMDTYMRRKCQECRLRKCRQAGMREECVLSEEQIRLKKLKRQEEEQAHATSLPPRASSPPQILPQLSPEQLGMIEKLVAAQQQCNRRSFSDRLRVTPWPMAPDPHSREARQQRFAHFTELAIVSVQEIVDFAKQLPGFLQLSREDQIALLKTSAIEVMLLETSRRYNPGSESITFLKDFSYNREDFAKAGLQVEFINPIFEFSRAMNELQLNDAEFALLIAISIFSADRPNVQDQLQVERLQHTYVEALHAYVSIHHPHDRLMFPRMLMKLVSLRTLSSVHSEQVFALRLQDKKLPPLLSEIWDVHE
Chain of Retinoic acid receptor gamma (Homo sapiens) (P13631 whole entry): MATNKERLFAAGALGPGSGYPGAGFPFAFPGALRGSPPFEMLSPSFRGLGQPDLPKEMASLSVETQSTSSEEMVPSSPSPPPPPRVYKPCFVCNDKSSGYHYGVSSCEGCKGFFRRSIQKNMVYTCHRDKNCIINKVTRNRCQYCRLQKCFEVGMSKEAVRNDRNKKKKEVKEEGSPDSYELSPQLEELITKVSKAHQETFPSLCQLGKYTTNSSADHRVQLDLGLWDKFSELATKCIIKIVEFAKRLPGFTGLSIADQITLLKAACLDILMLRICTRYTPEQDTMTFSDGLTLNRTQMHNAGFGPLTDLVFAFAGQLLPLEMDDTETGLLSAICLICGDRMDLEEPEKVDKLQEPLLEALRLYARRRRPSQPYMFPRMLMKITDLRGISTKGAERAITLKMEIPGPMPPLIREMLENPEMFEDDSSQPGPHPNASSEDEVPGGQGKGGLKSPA

Broadly, the inhibition is the share of the control response that was lost under treatment. In the case of `CC(C)OC(=O)C1=CN(C(=O)c2ccc(F)c(F)c2)CC(C)(C)c2c1[nH]c1ccccc21` [TUROFEXORATE ISOPROPYL], the outcome in test [1], in test [2], in test [3] and in test [5] was inactive. The compound also showed an inhibition in test [4] of 27%. In the test on Mus musculus, this compound showed an Activity of 23%.
